Assays:
U2OS cells = assay: Immunoblot analysis of VPS4- and VCP-mediated pathways (autophagy, ER stress, ERAD); assay type: cell-based; conditions: 0.6 μM CB-5083, 1 μM 4-107, complete media; for ER stress (HSPA5, ATF4) / autophagy (SQSTM1, LC3-II): 5 μM DBeQ
Experimental: Whole-cell lysates were prepared in radio-immunoprecipitation buffer (25 mM Tris-HCl, pH 8.0, 150 mM NaCl, 1 mM EDTA, 1% v/v IGEPAL CA-630, 0.5% w/v sodium deoxycholate, and 1% v/v SDS) containing protease (1:250) and phosphatase inhibitor cocktails (1:100) then resolved via SDS-PAGE and probed with the indicated antibodies. Signals were acquired with the Odyssey CLx (LI-COR) for fluorescence or Odyssey XF (LI-COR) for chemiluminescence detection and visualized in Image Studio version 6 (LI-COR).
VPS4 is essential for autophagy and loss of VPS4 function inhibits autophagic flux ([Takahashi et al, 2018]; [Zhen et al, 2019]). Meanwhile, VCP is required for endoplasmic reticulum-associated degradation (ERAD; [Rabinovich et al, 2002]) where VCP inhibition results in the accumulation of ubiquitinated proteins and induction of ER stress ([Weihl et al, 2006]; [Bastola et al, 2016]).

recombinant human VCP [1] = target: T1, recombinant human VCP (Rattus norvegicus, UniProt P46462); assay: VCP ATPase activity, EnzChek Phosphate assay; assay type: biochemical; conditions: screened at 5 µM; mean ± S.D., Supplemental Table 2
T1 construct: His (N); host or cells: Escherichia coli BL21(DE3)
T1 sequence (P46462 2-806 limits assumed): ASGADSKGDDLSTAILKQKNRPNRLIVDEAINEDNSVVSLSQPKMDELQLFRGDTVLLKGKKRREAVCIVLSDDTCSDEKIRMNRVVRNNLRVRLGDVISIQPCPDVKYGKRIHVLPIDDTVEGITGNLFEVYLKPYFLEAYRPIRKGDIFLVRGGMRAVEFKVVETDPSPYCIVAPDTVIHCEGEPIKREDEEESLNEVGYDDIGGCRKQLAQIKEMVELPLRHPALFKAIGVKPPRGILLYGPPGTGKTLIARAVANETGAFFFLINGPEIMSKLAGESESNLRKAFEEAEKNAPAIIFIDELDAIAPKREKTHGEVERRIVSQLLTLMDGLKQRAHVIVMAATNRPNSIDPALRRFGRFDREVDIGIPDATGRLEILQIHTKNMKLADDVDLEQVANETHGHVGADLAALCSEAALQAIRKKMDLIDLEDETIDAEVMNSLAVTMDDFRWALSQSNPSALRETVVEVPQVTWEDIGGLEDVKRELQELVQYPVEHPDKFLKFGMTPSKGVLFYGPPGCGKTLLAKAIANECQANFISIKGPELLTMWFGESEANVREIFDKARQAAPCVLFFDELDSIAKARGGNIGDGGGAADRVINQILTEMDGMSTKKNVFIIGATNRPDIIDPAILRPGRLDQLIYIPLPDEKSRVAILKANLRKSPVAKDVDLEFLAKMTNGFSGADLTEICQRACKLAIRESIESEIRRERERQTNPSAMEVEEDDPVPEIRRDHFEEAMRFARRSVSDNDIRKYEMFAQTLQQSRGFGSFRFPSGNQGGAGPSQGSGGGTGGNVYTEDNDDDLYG
Experimental: (§1) VPS4B and VCP ATPase activities were measured using the EnzChek Phosphate assay for the quantification of released phosphate. Assay buffers were based on literature precedents ([Cupido et al, 2019], [2021]) as follows: VPS4B buffer (20 mM HEPES-KOH, pH 7.4, 25 mM KOAc, 2 mM MgCl2, 5 mM (NH4)2SO4, 0.5 mM CaCl2, 2.5 mM DTT, 0.1 mg/mL BSA, 0.005% v/v Triton X-100), VCP buffer (20 mM HEPES-NaOH, pH 7.4, 20 mM NaCl, 10 mM MgCl2, 5 mM (NH4)2SO4, 0.5 mM CaCl2, 2.5 mM DTT, 0.1 mg/mL BSA, 0.005% v/v Triton X-100). In black clear-bottom 384-well plates, 22.5 μL of 5% DMSO or 40× test compounds diluted in the respective assay buffer was added to each well. ATPases were diluted to 1 μM in the respective buffers containing 2× EnzChek Phosphate assay coupling reagents of 400 μM MESG and 2 U of PNP, then 25 μL was added to each well. Plates were mixed at 1000 rpm for 30 minutes at RT while being protected from light. The reaction was initiated by adding 2.5 μL of 20 mM MgATP or water followed by mixing at 1200 rpm for 30 seconds at RT. Plates were measured at 360 nm using a CLARIOstar plate reader (BMG LABTECH) for 20 minutes at 37 °C. ATPase activity was calculated as the amount of phosphate released over a 5-minute interval under linear initial velocity conditions. The remaining ATPase activity was calculated by normalizing compound-treated activity values to the DMSO control. IC50 was calculated by fitting normalized values to a sigmoidal dose-response curve with Hill slope = −1 using Graph Pad Prism 10.0.
(§2) To identify VPS4i, we developed enzyme- and cell-based VPS4 functional assays to serve as VPS4i-screening platforms. For the enzyme-based assay, we used the colorimetric EnzChek Phosphate assay that detects free phosphate with the advantage of continuous measurement of ATP hydrolysis over time. […] Due to the high sequence and structural similarity of AAA-ATPases, we also established a VCP ATPase assay to evaluate hit selectivity. […] For the cell-based assay, our approach was based on how VPS4 inhibition causes the accumulation of ESCRT-III ([Babst et al, 1998]; [Katoh et al, 2003]). We used an N-terminal GFP-tagged CHMP4B reporter system because it is the most abundant ESCRT-III subunit ([Katoh et al, 2004]; [Teis et al, 2008]). Our aim was to test compounds under short-term serum and amino acid starvation to stimulate ESCRT activity for easier detection of inhibitors ([Takahashi et al, 2018], [2019]). […] Overall, we established 2 systems for VPS4i screening, a VPS4B ATPase activity assay and a GFP-CHMP4B accumulation cell-based assay.

[2] = test system: GFP-CHMP4B-expressing U2OS cells; assay: GFP-CHMP4B accumulation cell-based assay (high-content microscopy)
Outline: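 GFP-CHMP4B U2OS cells were cultured overnight, stained, then treated in SM with compounds (0.1% DMSO or 0.1% DMSO/0.1% ethanol vehicle final). High-content imaging used a 20× NA .70 objective at set intervals, ≥300 cells/well over 3 fields/well.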

VPS4B [3] = target: T2, VPS4B (Homo sapiens, UniProt O75351); assay: VPS4B ATPase activity, EnzChek Phosphate assay; assay type: biochemical; set-up: His tag (pET28a vector-encoded) (N); made in house; host or cells: Escherichia coli BL21(DE3)
T2 sequence (O75351 1-444): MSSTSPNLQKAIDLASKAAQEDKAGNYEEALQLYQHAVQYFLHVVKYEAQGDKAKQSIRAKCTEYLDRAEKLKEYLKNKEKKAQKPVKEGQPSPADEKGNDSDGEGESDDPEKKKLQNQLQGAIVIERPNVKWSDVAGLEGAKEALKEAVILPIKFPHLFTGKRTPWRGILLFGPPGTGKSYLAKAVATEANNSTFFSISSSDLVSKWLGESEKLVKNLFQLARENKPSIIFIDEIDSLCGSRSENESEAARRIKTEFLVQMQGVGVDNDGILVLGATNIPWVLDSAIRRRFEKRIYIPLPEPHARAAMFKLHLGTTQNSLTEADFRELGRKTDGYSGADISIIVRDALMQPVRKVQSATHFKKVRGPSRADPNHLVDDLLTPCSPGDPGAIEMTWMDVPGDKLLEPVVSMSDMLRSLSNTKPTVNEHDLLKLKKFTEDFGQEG
Outline: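 EnzChek phosphate release (MESG/PNP, 360 nm) with ATPases at 1 μM (diluted stock) in HEPES pH 7.4 buffers with MgCl2, CaCl2, DTT, BSA, Triton; 30 min compound preincubation at RT, started with MgATP, read 20 min at 37 °C. Activity from 5-min linear initial rate, normalized to DMSO; IC50 from Hill slope −1 fit.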

recombinant human VCP [4] = target: T3, recombinant human VCP; assay: VCP ATPase activity, EnzChek Phosphate assay; assay type: biochemical; conditions: 0.5 μM enzyme
T3 construct: His (N); host or cells: Escherichia coli BL21(DE3)
T3 sequence (P46462 2-806 limits assumed): as the sequence (P46462 2-806 limits assumed) above
Experimental: as §1, §2

VPS4B [5] = target: T2, VPS4B; assay: VPS4B cellular thermal shift assay (CETSA); assay type: cell-based; set-up: endogenous in cells; host or cells: U2OS; conditions: 5 μM DBeQ, 1 hour, starved U2OS cells
Experimental: The VPS4B CETSA was performed as previously described with modification ([Jafari et al, 2014]). In 10-cm dishes, near-confluent U2OS cells were rinsed with 1× DPBS and treated with the indicated compounds in acclimatized SM for 1 hour at 37 °C (0.1% DMSO). Cells were trypsinized, pelleted at 300 × g for 5 minutes, and washed with 1× PBS. After repeat pelleting at 300 × g for 5 minutes, the cells were resuspended in 1× PBS with protease inhibitor cocktail (1:250) and aliquoted into PCR strips with 20 μL per tube. PCR strips for each treatment were heated on a temperature gradient for 3 minutes using a thermal cycler (Bio-Rad Laboratories), followed by incubation at RT for 3 minutes. […] To normalize protein loading for SDS-PAGE, the soluble protein concentration of each 37 °C sample was quantified via the Pierce BCA assay ([…]), and a volume equal to 10 μg of protein was used for all samples from the same treatment. […] Signals were acquired with the Odyssey CLx (LI-COR) and quantified via densitometry using Image Studio version 6 (LI-COR). The remaining VPS4B levels were calculated by first obtaining the ratio of VPS4B:ACTB band intensities of each sample and then normalizing these ratios to that of the respective 37 °C sample. […]

[6] = test system: i-shVPS4A-expressing crVPS4B U2OS cells; assay: VPS4 synthetic cell death in i-shVPS4A-expressing crVPS4B cells (YOYO-3); assay type: cell-based; conditions: 1 μg/mL Dox; 20 μM z-VAD-fmk, 50 μM z-IETD-fmk
Experimental: To measure caspase activity, cells cultured in white opaque-bottom 384-well plates were incubated in the presence or absence of 1 μg/mL Dox for 24 hours. Caspase-Glo 8 or 3/7 reagent was then added 1:1 and allowed to incubate for 90 minutes at RT followed by luminescence measurement using the CLARIOstar microplate reader (BMG LABTECH). Signals had background luminescence subtracted and then normalized to the respective Dox-untreated i-GFP-expressing parental controls to obtain relative CASP8-like LETDase or CASP3/7-like DEVDase activities. For live-cell quantification, the cells seeded on black clear-bottom 96-well plates were incubated with the indicated compounds (0.1% to 0.3% DMSO final) in the presence of 100 nM YOYO-3, a cell-impermeant DNA-binding fluorescent probe that stains membrane integrity-impaired, dead cells. […] Phase and fluorescence images were obtained at the indicated intervals using the IncuCyte S3 Live-Cell Analysis System (Essen BioScience; 10× objective) and then analyzed using the Cell-by-Cell Analysis module (Essen BioScience; 9600-0031) of IncuCyte S3 Software (Essen BioScience; Version 2019B Rev2). To quantify the percentage of dead GFP-expressing cells, the GFP and YOYO-3 double-positive cell population was divided by the total GFP-positive cell population. […]

[7] = screened at 1 µM, mean ± S.D., Supplemental Table 2
[8] = screened at 1 μM, starvation media, 1 hour, foci intensity per cell normalized to 4-107, mean ± SD, Table 1
[9] = remaining ATPase activity, screened at 5 μM, mean ± SD, Table 1
[10] = screened at 5 µM, mean ± S.D., Supplemental Table 2

| Compound | ER stress (HSPA5, ATF4) (U2OS cells) | autophagy (SQSTM1, LC3-II) (U2OS cells) | VCP ATPase (% DMSO) (recombinant human VCP [1]) | GFP-CHMP4B (% 4-107) [2, 7] [% 4-107] | GFP-CHMP4B (% 4-107) [2, 8] [% 4-107] | VPS4B ATPase (% DMSO) (VPS4B [3]; [9]) | VPS4B ATPase (% DMSO) (VPS4B [3]; [10]) | rescue of VPS4 synthetic cell death [6] | other results |
| --- | --- | --- | --- | --- | --- | --- | --- | --- | --- |
| Cc1cc2c(C(N)=O)cccc2n1-c1nc2c(c(NCc3ccccc3)n1)COCC2 [CB-5083] | strongly induced ER stress | reduction in SQSTM1, indicating the stimulation of autophagy | – | – | – | – | – | – | accumulation of K48-linked polyubiquitinated proteins (U2OS cells): accumulation of K48-linked polyubiquitinated proteins |
| COc1cccc2c(NCc3ccc(F)cc3)nc(NCc3ccc(F)cc3)nc12 [Compound 22] | – | – | 99.33 ± 2.70 | 51.23 ± 26.20 | 51.23 ± 26.20 | 46.38 ± 2.33 | 46.38 ± 2.33 | – | – |
| c1ccc(CNc2nc(NCc3ccccc3)c3ccccc3n2)cc1 [DBeQ] | mildly induced ER stress | time-dependently inhibited autophagy | 74.64 ± 6.01 | 8.93 ± 3.51 | 8.93 ± 3.51 | 41.96 ± 7.53 | 41.96 ± 7.53 | – | IC50 (recombinant human VCP [4]): 15.9 ± 4.9 µM; accumulation of GFP-CHMP4B ([2]; 2 and 5 μM DBeQ, starved cells, 2 hours): dose-dependent accumulation of GFP-CHMP4B; change of VPS4B thermal stability (Tagg) (VPS4B [5]): subtle thermal destabilization of VPS4B that was not statistically significant; IC50 (VPS4B [3]; 0.5 μM enzyme): 3.9 ± 1.2 µM |
| z-IETD-fmk | – | – | – | – | – | – | – | partially rescued | – |
| z-VAD-fmk | – | – | – | – | – | – | – | partially rescued | – |
